In ChEMBL document CHEMBL4834431, “Design of Dimeric Bile Acid Derivatives as Potent and Selective Human NTCP Inhibitors” (J Med Chem, 2021):
Active and inactive are the calls of the source. The calls are words filed in the database; no cut-off is given here.

Key:
Hepatitis B virus [1] = assay: Antiviral activity against HBV infected in human HepG2-NTCP cells assessed as reduction in HBeAg secretion incubated for 24 hrs followed replacement with fresh medium and measured at day 5 post infection by ELISA; format: functional, organism-based
Hepatitis B virus [2] = assay: Antiviral activity against HBV infected in human HepG2-NTCP cells assessed as reduction in HBeAg secretion at 111 to 1000 nM incubated for 24 hrs followed by replacement with fresh medium and measured at day 5 post infection by ELISA; format: functional, organism-based; conditions: dose 111-1000 nM
Hepatitis B virus [3] = assay: Antiviral activity against HBV infected in human HepG2-NTCP cells assessed as reduction in intracellular HBV RNA level at 1 uM by qPCR analysis; format: functional, organism-based
Hepatitis B virus [4] = assay: Antiviral activity against HBV infected in human HepG2-NTCP cells assessed as reduction in intracellular accumulation of HBcAg at 1 uM by immunostaining based fluorescence microscopic analysis; format: functional, organism-based
Hepatitis delta virus = assay: Antiviral activity against HDV infected in human HepG2-NTCP cells assessed as reduction in intranuclear accumulation of HDV delta antigen at 5 uM incubated for 24 hrs followed by replacement with fresh medium and measured at day 5 post infection by DAPI staining based confocal microscopic analysis (reference value: 12.1 %); format: functional; parameters: scale not given: the % may be the effect or the level left
Hepatitis B virus [5] = assay: Antiviral activity against HBV infected in human HepG2-NTCP cells assessed as reduction in HBeAg secretion at 1 uM preincubated with compound followed by viral infection by ELISA; format: functional, organism-based
Hepatitis B virus [6] = assay: Antiviral activity against HBV infected in human HepG2-NTCP cells assessed as reduction in HBeAg secretion at 1 uM compound added along with viral infection by ELISA; format: functional, organism-based
Hepatitis B virus [7] = assay: Antiviral activity against HBV infected in human HepG2-NTCP cells assessed as reduction in HBeAg secretion at 1 uM pre-infected with virus followed by compound addition by ELISA; format: functional, organism-based
[8] = target: T1, Hepatic sodium/bile acid cotransporter (Homo sapiens, UniProt Q14973); assay: Inhibition of FITC-labeled HBV Pre-S1 polypeptide binding to human NTCP expressed in HepG2 cells after 2 to 3 hrs by confocal microscopic analysis; format: cell-based; conditions: time 2-3 hrs
T1 sequence (Q14973 whole entry): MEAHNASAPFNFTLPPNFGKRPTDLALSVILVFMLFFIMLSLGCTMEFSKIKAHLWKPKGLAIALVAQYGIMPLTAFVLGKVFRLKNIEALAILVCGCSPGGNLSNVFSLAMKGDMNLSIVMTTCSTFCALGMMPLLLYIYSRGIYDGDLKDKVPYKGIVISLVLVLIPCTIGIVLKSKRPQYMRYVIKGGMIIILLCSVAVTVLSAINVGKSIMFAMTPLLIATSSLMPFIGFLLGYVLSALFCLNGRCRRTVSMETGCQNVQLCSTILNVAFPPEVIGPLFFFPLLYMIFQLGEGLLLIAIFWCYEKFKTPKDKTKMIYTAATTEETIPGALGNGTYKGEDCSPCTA

Hepatocyte = assay: Cytotoxicity against primary tupaia hepatocytes expressing NTCP assessed as reduction in cell viability at 100 uM after 48 hrs by Cell-Titer Glo assay; format: cell-based; conditions: scandentia
HepG2 [9] = assay: Effect on NTCP surface expression in human HepG2-NTCP cells assessed as reduction in NTCP surface expression level after 2 hrs by immunostaining based assay; format: functional, cell-based
[10] = target: T1, Hepatic sodium/bile acid cotransporter; assay: Inhibition of human NTCP-mediated [3H]-TCA uptake expressed in human HepG2 cells at 2 uM; format: cell-based; conditions: hepg2, 2 µM
[11] = target: T1, Hepatic sodium/bile acid cotransporter; assay: Inhibition of human NTCP-mediated [3H]-Estrone sulfate uptake expressed in human HepG2 cells at 2 uM; format: cell-based; conditions: hepg2, 2 µM
[12] = target: T2, Solute carrier organic anion transporter family member 1B1 (Homo sapiens, UniProt Q9Y6L6); assay: Inhibition of human OATP1B1-mediated [3H]-Estrone sulfate uptake expressed in human HepG2 cells at 2 uM; format: cell-based; conditions: hepg2, 2 µM
T2 sequence (Q9Y6L6 whole entry): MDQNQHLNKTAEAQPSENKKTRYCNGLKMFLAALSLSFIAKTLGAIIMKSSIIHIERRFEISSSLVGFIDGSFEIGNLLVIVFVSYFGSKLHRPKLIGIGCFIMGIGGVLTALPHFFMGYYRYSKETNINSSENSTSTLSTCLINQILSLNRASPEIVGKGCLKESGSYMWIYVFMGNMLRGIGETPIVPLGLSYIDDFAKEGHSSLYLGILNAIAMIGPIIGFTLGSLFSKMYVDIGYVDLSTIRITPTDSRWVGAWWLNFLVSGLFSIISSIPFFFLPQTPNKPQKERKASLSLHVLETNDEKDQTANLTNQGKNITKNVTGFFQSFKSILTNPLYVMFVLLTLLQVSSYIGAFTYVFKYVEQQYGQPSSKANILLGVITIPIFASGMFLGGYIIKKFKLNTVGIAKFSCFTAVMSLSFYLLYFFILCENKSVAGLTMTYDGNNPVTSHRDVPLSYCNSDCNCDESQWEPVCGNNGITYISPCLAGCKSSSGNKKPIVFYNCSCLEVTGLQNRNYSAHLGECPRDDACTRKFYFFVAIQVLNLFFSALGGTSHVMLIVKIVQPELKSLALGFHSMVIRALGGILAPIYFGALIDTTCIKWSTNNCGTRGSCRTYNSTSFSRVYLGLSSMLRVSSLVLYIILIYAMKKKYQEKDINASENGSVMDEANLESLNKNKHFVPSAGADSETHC

[13] = target: T1, Hepatic sodium/bile acid cotransporter; assay: Inhibition of human NTCP-mediated NQL-064 uptake expressed in human HepG2 cells incubated for 30 mins; format: cell-based; conditions: hepg2, 0.5 h
[14] = target: T1, Hepatic sodium/bile acid cotransporter; assay: Inhibition of human NTCP-mediated NQL-065 uptake expressed in human HepG2 cells incubated for 30 mins; format: cell-based; conditions: hepg2, 0.5 h
Hepatitis B virus [15] = assay: Antiviral activity against HBV infected in human HepG2-NTCP cells assessed as reduction in HBeAg secretion preincubated for 2 hrs followed by viral infection by ELISA; format: functional, organism-based
[16] = target: T1, Hepatic sodium/bile acid cotransporter; assay: Inhibition of human NTCP-mediated [3H]-TCA uptake expressed in human HepG2 cells; format: cell-based; conditions: for inhibition (INH): human, hepg2
HepG2 [17] = assay: Inhibition of monkey NTCP-mediated [3H]-TCA uptake expressed in human HepG2 cells; format: cell-based; conditions: Macaca mulatta
[18] = target: T3, Hepatic sodium/bile acid cotransporter (Mus musculus, UniProt O08705); assay: Inhibition of mouse NTCP-mediated [3H]-TCA uptake expressed in human HepG2 cells; format: cell-based
T3 sequence (O08705 whole entry): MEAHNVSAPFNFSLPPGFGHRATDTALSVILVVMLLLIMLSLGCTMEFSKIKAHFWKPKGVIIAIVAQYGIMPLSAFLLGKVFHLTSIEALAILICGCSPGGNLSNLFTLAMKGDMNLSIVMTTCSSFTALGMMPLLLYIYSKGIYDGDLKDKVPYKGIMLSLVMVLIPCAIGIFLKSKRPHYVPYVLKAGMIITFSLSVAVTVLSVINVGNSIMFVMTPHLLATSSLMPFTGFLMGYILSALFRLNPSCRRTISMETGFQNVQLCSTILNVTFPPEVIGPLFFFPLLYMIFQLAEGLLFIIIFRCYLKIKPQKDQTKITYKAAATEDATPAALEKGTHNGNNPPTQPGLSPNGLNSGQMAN

HepG2 [19] = assay: Inhibition of tree shrew NTCP-mediated [3H]-TCA uptake expressed in human HepG2 cells; format: cell-based; conditions: Scandentia

SMILES	IC50 (Hepatitis B virus [1])	Activity (Hepatitis B virus [2])	Activity (Hepatitis B virus [3])	Activity (Hepatitis B virus [4])	Activity (Hepatitis delta virus)	Activity (Hepatitis B virus [5])	Activity (Hepatitis B virus [6])	Activity (Hepatitis B virus [7])	inhibition (INH) [8]	Activity (Hepatocyte)	Activity (HepG2 [9])	inhibition (INH) [10]	inhibition (INH) [11]	inhibition (INH) [12]	inhibition (INH) [13]	inhibition (INH) [14]	Activity (Hepatitis B virus [15])	inhibition (INH) [16]	inhibition (HepG2 [17])	inhibition (INH) [18]	other results
C[C@H](CCC(=O)NCCS(=O)(=O)O)[C@H]1CC[C@H]2[C@@H]3[C@@H](O)C[C@@H]4C[C@H](NC(=O)CCCC(=O)N[C@@H]5CC[C@@]6(C)[C@@H](C5)C[C@H](O)[C@@H]5[C@@H]6CC[C@]6(C)[C@@H]([C@H](C)CCC(=O)NCCS(=O)(=O)O)CC[C@@H]56)CC[C@]4(C)[C@H]3CC[C@]12C	41 nM	Active	Active	Active	2.5%	Active	Active	inactive	Active	Non-Toxic	inactive	Active	Active	Not Active	Active	Active	inactive	Active	inactive	Not Active	IC50 [16]: 58.3 nM; inhibition (HepG2 [19]): inactive
C[C@H](CCC(=O)O[C@@H]1CC[C@@]2(C)[C@@H](C1)C[C@H](O)[C@@H]1[C@@H]2CC[C@]2(C)[C@@H]([C@H](C)CCC(=O)NCCS(=O)(=O)O)CC[C@@H]12)[C@H]1CC[C@H]2[C@@H]3[C@@H](O)C[C@@H]4C[C@H](O)CC[C@]4(C)[C@H]3CC[C@]12C	58 nM	Active	Active	Active	1.7%	Active	Active	inactive	Active	Non-Toxic	inactive	Active	Active	Not Active	Active	Active	Active	Active	Active	Active	inhibition (HepG2 [19]): Active
